Like-named read-outs stand apart in the source and are kept apart here.
Columns and labels:
A549 lung cancer cells = assay: alamar blue cell viability assay, A549; assay type: cell-based, human
From the text: FIG. 9. Heat map of the screening results. Scale: 0 (red), complete inhibition; 1 (green), no inhibition. Screening of the rapafucin library for toxicity hits against A549 lung cancer cells using alamar blue assay.
A 45,000 compound and 3000 pool rapafucin library were screened using the alamar blue cell viability assay with the human non-small cell lung cancer (NSCLC) cell line A549. […] Several potent rapafucin hits were discovered to inhibit cell proliferation of A549. […] Each was resynthesized on preparative scale, purified by silica gel chromatography, followed by HPLC purification, and subjected to a series of detailed structure characterization (schemes I and II; FIGS. 10-14).
Dose-dependent inhibition of cell proliferation by A18 and E11 was next evaluated in several other human cancer cell lines, including breast cancer HCC1954, pancreatic cancer PANC10.05, leukemia Jurkat T and colon cancer RKO (FIGS. 1b and 1c). […] (FIGS. 1 and 9; Table 3)

HEK 293T FLAG-Glut3 = assay: alamar blue assay, HEK 293T Glut3 overexpression cells; assay type: cell-based
From the text: FIGS. 20A-20C. E11 is a specific inhibitor of Glut1. (a) Glut1 and Glut3 protein levels of wild type, Glut1 and Glut3 overexpression cells analyzed by western blotting. (b)(c) Inhibition of cell proliferation in HEK293T, Glut1 and Glut3 overexpression cells by A18 and E11.
(§1) Up to now, at least 14 different isoforms of GLUTs have been identified in human cells. It was then asked whether A18 and E11 are specific inhibitors of GLUT1. To answer this question, colon cancer DLD-1 wild type and GLUT1 gene knock out cell lines were chosen as a cell model (FIG. 4a). […] GLUTs that are most relevant to cancer are Glut1 and Glut3. To obtain additional evidence, Glut1 and Glut3 in HEK 293T cells were overexpressed and an alamar blue cell viability assay was performed again. […] (see FIGS. 4, 19, 20, 26; Table 4).

glucose transporters [1] = system: T1, glucose transporters; assay: 3-O-methyl-D-[3H] glucose uptake in A549 cells; assay type: cell-based, human; conditions: read-out: IC50 uptake of 3H-labeled 3-O-methylglucose
T1 construct: IC50 uptake of 3H-labeled 3-O-methylglucose; other: A549 cells; compared with 3-O-methylglucose uptake; other: A549 cells treated with drugs for 1 min; other: A549 cells, glucose uptake assay; other
Description: (§2) FIGS. 2A-2D. Inhibition of Glucose Transport by A18 and E11. (a) Inhibition of 3-O-methyl¬D-[3H] glucose uptake in A549 cells by A18. (b) Inhibition of 3-O-methyl-D-[3H] glucose uptake in A549 cells by E11. (c) Inhibition of 2-deoxy-D-[3H] glucose uptake in A549 […] cells by A18. (d) Inhibition of 2-deoxy-D-[3H] glucose uptake in A549 cells by E11.
(§3) Direct action on glucose transporters was measured by monitoring uptake of 3H-labeled 3-O-methylglucose, which is transported by glucose transporters but not metabolized further, allowing the assessment of initial rate of glucose uptake. […] Initial uptake can also be assessed by measuring the uptake of 3H-labeled 2-deoxy-D-glucose, which gets into the cell through glucose transporters and is phosphorylated by hexokinase but cannot be metabolized further due to the lack of oxygen at the second position.

glucose transporters [2] = system: T1, glucose transporters; assay: 2-deoxy-D-[3H] glucose uptake in A549 cells; assay type: cell-based, human; conditions: for inhibition of glucose transport: A549 cells, glucose uptake assay
Description: as §2
FIGS. 16A-16B. Inhibition of Glucose Transport by A18 and E11. Cytochalasin B (10 μM), A18 (3 μM), E11 (3 μM) and DMSO control were used to treated A549 cells for 10 min (a) or 1 min (b), then glucose uptake in the treated cells was measured at 1, 3, 10 and 30 min after the addition of 2-dexoy-D-[^3H] glucose.
as §3

GLUT1 = target: T2, GLUT1 (Homo sapiens, UniProt P11166); assay: 3-O-methyl-D-[3H] glucose uptake in human red blood cells; assay type: cell-based; conditions: RBCs; read-out: IC50 3H-labeled 3-O-methylglucose uptake
T2 construct: endogenous in cells; host or cells: erythrocyte (RBC-derived) ghosts
T2 sequence (P11166 1-492): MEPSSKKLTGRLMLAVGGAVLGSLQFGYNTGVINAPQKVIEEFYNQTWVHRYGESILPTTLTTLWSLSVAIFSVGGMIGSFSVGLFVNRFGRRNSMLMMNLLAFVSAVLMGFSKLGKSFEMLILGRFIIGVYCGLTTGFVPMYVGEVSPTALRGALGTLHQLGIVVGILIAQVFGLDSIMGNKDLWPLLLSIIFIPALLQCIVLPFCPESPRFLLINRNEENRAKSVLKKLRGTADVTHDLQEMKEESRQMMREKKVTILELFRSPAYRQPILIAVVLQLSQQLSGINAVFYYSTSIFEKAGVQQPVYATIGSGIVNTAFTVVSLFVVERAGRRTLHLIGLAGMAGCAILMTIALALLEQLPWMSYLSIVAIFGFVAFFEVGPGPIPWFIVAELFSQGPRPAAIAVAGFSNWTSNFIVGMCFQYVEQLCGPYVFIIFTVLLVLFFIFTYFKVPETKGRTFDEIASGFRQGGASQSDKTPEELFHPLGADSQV
From the text: FIGS. 3A-3D. Inhibition of Glucose Transport by A18 and E11. (a) Inhibition of 3-O-methyl-D-[3H] glucose uptake in human red blood cells by A18. (b) Inhibition of 3-O-methyl-D-[3H] glucose uptake in human red blood cells by E11. (c) Inhibition of 3-O-methyl-D-[3H] glucose uptake in erythrocyte ghosts by A18. (d) Inhibition of 3-O-methyl-D-[3H] glucose uptake in erythrocyte ghosts by E11.
A18 and E11 were previously shown to have a broad spectrum of anticancer activity. […] To test this hypothesis, red blood cells (RBCs) were applied as a cell model because RBCs express Glut1 as their sole glucose transporter and have been frequently used in studying glucose transport. […] To eliminate other possibilities, the glucose uptake assays were repeated in RBC-derived ghosts, in which all the intracellular proteins and enzymes were removed and only membrane-bound and membrane-associated proteins remained. […] (see FIGS. 2, 3 and 15-18)

DLD-1 wild type = assay: alamar blue cell viability assay, DLD-1 wild type; assay type: cell-based
From the text: FIGS. 19A-19C. E11 is a specific inhibitor of Glut1. (a)(b) Inhibition of cell proliferation in A549, DLD-1 wild type and Glut1 knock out cells by A18 and E11. (c) Potency of A18 and E11 against the alamar blue assay in A549, DLD-1 wild type and Glut1 knock out cells.
as §1

Row | Molecule | IC50 (A549 lung cancer cells; Homo sapiens) [nM] | IC50 (HEK 293T FLAG-Glut3; Homo sapiens, HEK 293T FLAG-Glut3) [nM] | IC50 (glucose transporters [1]) [nM] | inhibition of glucose transport (glucose transporters [2]) | IC50 (GLUT1) [nM] | inhibition of cell proliferation, alamar blue (DLD-1 wild type) | IC50 (A549 lung cancer cells) [nM] | inhibition in alamar blue cell viability assay (HEK 293T FLAG-Glut3; GLUT3 overexpression HEK 293T cells) | IC50 alamar blue assay (HEK 293T FLAG-Glut3; HEK 293T FLAG-Glut3) | glucose uptake inhibition (glucose transporters [2]; A549 cells treated with drugs for 1 min) [%]
1 | CC[C@@H](C)[C@H]1C(=O)NCC(=O)N(C)CC/C=C/C(=O)OCC(C)(C)C(=O)C(=O)N2CCCC[C@H]2C(=O)O[C@H](CCc2ccc(OC)c(OC)c2)c2cccc(c2)NC(=O)CCC(=O)N(C)[C@@H](CC(C)C)C(=O)N[C@H](Cc2ccccc2)C(=O)N1C [A18] | 189 | 2350 | 18.7 | significantly inhibit | 34.2 | strongly inhibited | – | – | – | –
2 | Gly-^MSerBu-Nal-^MAla [E11] | – | – | 38.2 | significantly inhibit | 74.2 | kept inhibitory activity | 367 | didn't show any inhibition | No activity | 50
